Where two headings read alike, the source gives them in different places. Each block holds one molecule with its values, some of them ahead of it.
Columns and labels:
Format in all cases: biochemical
CDK9 = CDK9 (Homo sapiens, UniProt P50750); assay: Kinase functional assay (mobility shift), CDK9; conditions: for inhibition at 1 µM: 1 µM compound, Table S3; for inhibition at 1 µM / inhibition at 10 µM: read-out: CDK9 (% Inhib.); for inhibition at 10 µM: Table S4
Akt = assay: Kinase functional assay (mobility shift), Akt; conditions: for IC50: dose response
TNKS2 = TNKS2 (Homo sapiens, UniProt Q9H2K2); assay: NAD+ quantification activity assay, TNKS2
Chain of TNKS2 (Q9H2K2 959-1164): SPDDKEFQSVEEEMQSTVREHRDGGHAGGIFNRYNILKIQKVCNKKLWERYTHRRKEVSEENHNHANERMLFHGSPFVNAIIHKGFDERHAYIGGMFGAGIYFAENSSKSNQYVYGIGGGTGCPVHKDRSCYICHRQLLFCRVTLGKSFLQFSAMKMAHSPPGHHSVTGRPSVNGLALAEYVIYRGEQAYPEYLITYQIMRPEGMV
Description: The activity assay used to measure the potency of the compounds against TNKS2 is based on the quantification of NAD^+[38]. The reactions were carried out in 96-well plate (Greiner bio-one, U-shaped) and the conditions were the same as reported earlier (Table S5)[24].
The compounds were stored in 100% DMSO at −20 °C. All the compounds were diluted in the TNKS2 assay buffer (50 mM Bis-Tris Propane, 0.5 mM TCEP, 0.01% Triton-100x). Control reactions were used to exclude the effect of compound fluorescence and quenching from the calculations. […] The pIC50 values were calculated and fitted with nonlinear regression using 4-parameters with GraphPad Prism (version 5.0 for windows).
Protein (nM) NAD+ (nM) Incubation Buffer
Kinase [ATP] Substrate Incubation Reaction buffer

ERK2 = ERK2 (Homo sapiens, UniProt P28482); assay: Kinase functional assay (mobility shift), ERK2 (p42); conditions: for p42 inhibition-% / inhibition at 10 µM: 10 µM compound; for p42 inhibition-%: Table 1; for inhibition at 1 µM: 1 µM compound, Table S3; for inhibition at 1 µM / inhibition at 10 µM: read-out: ERK2 (% Inhib.); for inhibition at 10 µM: Table S4
Chain of ERK2 (P28482 whole entry, species assumed): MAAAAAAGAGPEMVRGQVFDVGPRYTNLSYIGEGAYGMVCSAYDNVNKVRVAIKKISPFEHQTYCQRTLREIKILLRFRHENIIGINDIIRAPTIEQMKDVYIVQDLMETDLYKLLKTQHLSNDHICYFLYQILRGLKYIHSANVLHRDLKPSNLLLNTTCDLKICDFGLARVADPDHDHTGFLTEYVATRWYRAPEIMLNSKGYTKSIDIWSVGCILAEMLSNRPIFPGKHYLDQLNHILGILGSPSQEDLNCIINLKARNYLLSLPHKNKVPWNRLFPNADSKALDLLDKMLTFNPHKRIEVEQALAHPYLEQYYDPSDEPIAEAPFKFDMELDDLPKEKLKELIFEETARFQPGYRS

p38α = p38α (Homo sapiens, UniProt Q16539); assay: Kinase functional assay (mobility shift), p38α; conditions: for p38 inhibition-% / inhibition at 10 µM: 10 µM compound; for p38 inhibition-%: Table 1; for inhibition at 1 µM: 1 µM compound, Table S3; for inhibition at 1 µM / inhibition at 10 µM: read-out: p38α (% Inhib.); for inhibition at 10 µM: Table S4
Chain of p38α (Q16539 whole entry): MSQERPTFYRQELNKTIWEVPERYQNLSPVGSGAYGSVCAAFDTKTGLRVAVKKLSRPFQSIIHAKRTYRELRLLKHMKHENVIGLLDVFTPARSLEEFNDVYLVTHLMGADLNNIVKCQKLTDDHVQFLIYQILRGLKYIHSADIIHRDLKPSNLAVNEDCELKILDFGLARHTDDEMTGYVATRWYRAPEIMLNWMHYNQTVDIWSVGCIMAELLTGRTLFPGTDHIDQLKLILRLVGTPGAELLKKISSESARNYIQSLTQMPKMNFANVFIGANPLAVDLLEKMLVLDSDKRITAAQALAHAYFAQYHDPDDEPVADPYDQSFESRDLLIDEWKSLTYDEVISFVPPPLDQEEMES

GSK3β = GSK3β (Homo sapiens, UniProt P49841); assay: Kinase functional assay (mobility shift), GSK3β; conditions: for GSK3β inhibition-% / inhibition at 10 µM: 10 µM compound; for GSK3β inhibition-%: Table 1; for inhibition at 1 µM: 1 µM compound, Table S3; for inhibition at 1 µM / inhibition at 10 µM: read-out: GSK3β (% Inhib.); for inhibition at 10 µM: Table S4
Chain of GSK3β (P49841 whole entry, species assumed): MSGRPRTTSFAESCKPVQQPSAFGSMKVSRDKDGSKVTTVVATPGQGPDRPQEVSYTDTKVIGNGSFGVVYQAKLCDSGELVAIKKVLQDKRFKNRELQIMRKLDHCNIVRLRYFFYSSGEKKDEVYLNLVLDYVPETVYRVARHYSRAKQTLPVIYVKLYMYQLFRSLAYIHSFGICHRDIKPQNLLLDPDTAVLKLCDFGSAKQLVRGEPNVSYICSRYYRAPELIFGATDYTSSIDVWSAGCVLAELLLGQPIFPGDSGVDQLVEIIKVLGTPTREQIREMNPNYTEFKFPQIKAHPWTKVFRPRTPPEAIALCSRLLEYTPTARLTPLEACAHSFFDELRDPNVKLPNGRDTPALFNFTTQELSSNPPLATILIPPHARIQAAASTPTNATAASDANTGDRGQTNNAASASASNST

human CK2α-1 = target: T1, human CK2α-1 (Homo sapiens, UniProt P68400); assay: ADP-Glo kinase assay, CK2; conditions: for CK2 inhibition-% / inhibition at 10 µM: 10 µM compound; for CK2 inhibition-%: Table 1; for inhibition at 1 µM: 1 µM compound, Table S3; for inhibition at 1 µM / inhibition at 10 µM: read-out: CK2 (% Inhib.); for inhibition at 10 µM: Table S4
T1 construct: purchased Promega V4,482
T1 sequence (P68400 whole entry): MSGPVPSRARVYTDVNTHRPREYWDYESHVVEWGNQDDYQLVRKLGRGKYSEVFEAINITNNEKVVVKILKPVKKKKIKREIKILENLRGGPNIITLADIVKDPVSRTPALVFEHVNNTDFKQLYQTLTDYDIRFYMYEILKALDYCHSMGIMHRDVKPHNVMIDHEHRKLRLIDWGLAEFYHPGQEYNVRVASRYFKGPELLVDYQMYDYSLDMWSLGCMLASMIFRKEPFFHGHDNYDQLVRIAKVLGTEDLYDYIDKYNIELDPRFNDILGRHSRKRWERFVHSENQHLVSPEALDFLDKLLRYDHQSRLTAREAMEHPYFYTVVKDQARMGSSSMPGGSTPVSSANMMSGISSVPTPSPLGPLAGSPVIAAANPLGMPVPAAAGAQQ
Description: The kinase functional assays were performed using a combination of kinase and 1.5 μM peptide substrate in the presence of ATP. The reaction mixture was analyzed on the Caliper LabChip 3,000 (Caliper, Hopkinton, MA) by the electrophoretic mobility shift of the fluorescent substrate and phosphorylated product. For the inhibition of human CK2α-1, the experiments were carried out with ADP-Glo kinase Assay Kit (Promega V9,101). Assays are described in detail in the Supplementary Methods and Table S6. […]
Dose-response curves were generated to determine the concentration required to inhibit 50% of kinase activity (IC50). Staurosporine (Invitrogen BP2,451) was included as a positive control of each enzymatic assay. The profiling of the kinases was done at 1 and at 10 μM of the compound.
For the inhibition of human CK2α-1, the experiments were carried out in a white 384-microplate low flange (Corning 3,572) with ADP-Glo kinase Assay Kit (Promega V9101) and CK2α-1 Kinase Enzyme System (Promega V4,482). The test compounds and standard staurosporine (Invitrogen BP2451), 25 ng/well CK2α-1 kinase and 50 µM ATP were added in a final volume of 10 µl/well using reaction buffer supplied by kit as assay buffer. The reaction mixture was incubated in gentle shaking for 60 minutes at room temperature. After the incubation 10 µl of ADP-Glo reagent was added and incubated in gentle shaking for 40 minutes at room temperature. Finally 20 µl of Kinase Detection Reagent was added and the plate was incubated on a shaker for 30 minutes at room […]
temperature. […]

[1] = compound does not completely inhibit the enzyme at concentrations used, IC50 extrapolated by the analysis software, read-out: CDK9 IC50 (extrapolated)
[2] = Table 1, read-out: TNKS2 IC50 (shown for comparison)
[3] = dose response, read-out: CDK9 IC50

Chain of CDK9 (P50750 whole entry, species assumed): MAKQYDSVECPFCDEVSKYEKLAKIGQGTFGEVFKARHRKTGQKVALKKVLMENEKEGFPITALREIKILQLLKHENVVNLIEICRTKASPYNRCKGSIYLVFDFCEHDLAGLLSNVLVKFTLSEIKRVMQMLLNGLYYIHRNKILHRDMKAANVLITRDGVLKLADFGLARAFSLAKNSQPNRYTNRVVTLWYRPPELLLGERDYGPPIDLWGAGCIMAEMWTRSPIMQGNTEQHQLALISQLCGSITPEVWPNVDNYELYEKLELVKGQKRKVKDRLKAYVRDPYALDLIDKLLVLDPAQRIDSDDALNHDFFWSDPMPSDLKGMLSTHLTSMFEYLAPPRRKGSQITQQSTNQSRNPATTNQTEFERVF
Chain of CDK9 (O60563 whole entry partner, species assumed): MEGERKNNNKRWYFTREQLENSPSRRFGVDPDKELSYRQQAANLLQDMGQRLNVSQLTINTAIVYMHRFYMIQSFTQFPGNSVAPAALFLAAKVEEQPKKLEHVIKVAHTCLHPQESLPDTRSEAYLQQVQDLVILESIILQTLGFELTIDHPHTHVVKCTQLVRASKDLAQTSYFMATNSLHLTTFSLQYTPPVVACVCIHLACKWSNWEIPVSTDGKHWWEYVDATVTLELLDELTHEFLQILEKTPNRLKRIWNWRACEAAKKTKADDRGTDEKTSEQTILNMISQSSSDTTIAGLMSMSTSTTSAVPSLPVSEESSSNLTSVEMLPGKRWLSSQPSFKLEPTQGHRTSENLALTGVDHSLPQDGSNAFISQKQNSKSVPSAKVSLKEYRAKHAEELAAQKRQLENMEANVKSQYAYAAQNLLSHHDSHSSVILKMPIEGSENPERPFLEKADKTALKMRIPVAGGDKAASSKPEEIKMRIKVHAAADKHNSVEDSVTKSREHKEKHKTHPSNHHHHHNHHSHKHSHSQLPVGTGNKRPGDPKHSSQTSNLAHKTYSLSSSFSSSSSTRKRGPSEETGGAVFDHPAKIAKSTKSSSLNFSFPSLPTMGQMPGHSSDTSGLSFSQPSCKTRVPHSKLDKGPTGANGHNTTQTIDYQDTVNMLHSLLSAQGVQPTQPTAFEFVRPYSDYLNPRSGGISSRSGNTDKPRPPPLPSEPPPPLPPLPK

SMILES: Oc1nc(-c2ccccc2F)nc2ccccc12 [Compound 26]
IC50 (TNKS2; TNKS2 IC50, NAD+ 500 nM): 4.77 µM

SMILES: O=c1[nH]c(-c2ccc3[nH]ncc3c2)nc2ccccc12 [Compound 20]
IC50 (TNKS2; TNKS2 IC50, NAD+ 500 nM): 0.4 µM | inhibition at 1 µM (CDK9): 7 ± 4% | inhibition at 10 µM (CDK9; 10 µM compound): 34 ± 4% | AKT (% Inhib.) (Akt; 1 µM compound, Table S3): 1 ± 1% | AKT (% Inhib.) (Akt; 10 µM compound, Table S4): 1 ± 1% | inhibition at 1 µM (ERK2): 3 ± 1% | inhibition at 10 µM (ERK2): 14 ± 2% | inhibition at 1 µM (p38α): 1 ± 1% | inhibition at 10 µM (p38α): 3 ± 2% | inhibition at 1 µM (GSK3β): 14 ± 1% | inhibition at 10 µM (GSK3β): 57 ± 1% | inhibition at 1 µM (human CK2α-1): 4 ± 3% | inhibition at 10 µM (human CK2α-1): 12 ± 4%

SMILES: O=c1[nH]c(-c2ccccc2Cl)nc2ccccc12 [Compound 25]
IC50 (TNKS2; TNKS2 IC50, NAD+ 500 nM): 243 µM

SMILES: O=c1[nH]c(-c2ccc3[nH]ncc3c2)nc2ccccc12 [C00001]
IC50 (TNKS2; [2]): 0.4 µM | CDK9 inhibition-% (CDK9; 10 µM compound, Table 1): 34% | Akt inhibition-% (Akt; 10 µM compound, Table 1): 1% | p42 inhibition-% (ERK2): 14% | p38 inhibition-% (p38α): 3% | GSK3β inhibition-% (GSK3β): 57% | CK2 inhibition-% (human CK2α-1): 12%

SMILES: O=c1[nH]c(-c2ccc(-c3ccccn3)cc2)nc2ccccc12 [Compound 29]
IC50 (TNKS2; TNKS2 IC50, NAD+ 500 nM): 0.016 µM

SMILES: COc1ccccc1-c1nc(O)c2ccccc2n1 [Compound 18]
IC50 (TNKS2; TNKS2 IC50, NAD+ 500 nM): 10 µM

SMILES: O=c1[nH]c(-c2ccccn2)nc2ccccc12 [Compound 11]
IC50 (TNKS2; TNKS2 IC50, as quoted in text): 2.4 µM

SMILES: COCCN1CC(=O)C(c2nc3ccccc3c(=O)[nH]2)=C1N [Compound 22]
IC50 (TNKS2; TNKS2 IC50, NAD+ 500 nM): 92 µM

SMILES: O=c1[nH]c(-c2ccc(N3CCOCC3)cc2)nc2ccccc12 [Compound 31]
IC50 (TNKS2; TNKS2 IC50, NAD+ 500 nM): 0.017 µM

SMILES: O=c1[nH]c(-c2cnc[nH]2)nc2ccccc12 [Compound 21]
IC50 (TNKS2; TNKS2 IC50, NAD+ 500 nM): 6.53 µM

Results, then the molecule that gave them:

IC50 (CDK9; [1]): 28.3 µM | IC50 (Akt): 13.8 µM
SMILES: Nc1ccc(-c2nc3ccccc3c(=O)[nH]2)cc1 [C00007]

IC50 (TNKS2; [2]): 1.05 µM | IC50 (CDK9; [3]): 3.4 µM | p42 inhibition-% (ERK2): 51% | p38 inhibition-% (p38α): 45% | GSK3β inhibition-% (GSK3β): 41% | CK2 inhibition-% (human CK2α-1): 2%
SMILES: Nc1ccc(-c2nc3cc(Cl)ccc3c(=O)[nH]2)cc1 [C00006]

IC50 (TNKS2; TNKS2 IC50, NAD+ 500 nM): 30.1 µM
SMILES: O=C(O)c1ccc2c(=O)[nH]c(-c3ccc(Cl)cc3)nc2c1 [Compound 38]

IC50 (TNKS2; TNKS2 IC50, NAD+ 500 nM): 2.46 µM
SMILES: COc1ccc(-c2nc3cc(Cl)ccc3c(=O)[nH]2)cc1 [Compound 40]

IC50 (TNKS2; TNKS2 IC50, NAD+ 500 nM): 1.05 µM | IC50 (TNKS2; TNKS2 IC50, as quoted in text): 1.1 µM | inhibition at 1 µM (CDK9): 17 ± 5% | inhibition at 10 µM (CDK9; 10 µM compound): 78 ± 2% | IC50 (CDK9; [3]): 3.4 µM | AKT (% Inhib.) (Akt; 10 µM compound, Table S4): 89 ± 1% | IC50 (Akt): 1.6 µM | inhibition at 1 µM (ERK2): 14 ± 1% | inhibition at 10 µM (ERK2): 51 ± 1% | inhibition at 1 µM (p38α): 5 ± 1% | inhibition at 10 µM (p38α): 45 ± 1% | inhibition at 1 µM (GSK3β): 4 ± 1% | inhibition at 10 µM (GSK3β): 41 ± 1% | inhibition at 1 µM (human CK2α-1): 1 ± 1% | inhibition at 10 µM (human CK2α-1): 2 ± 2%
SMILES: Nc1ccc(-c2nc3cc(Cl)ccc3c(=O)[nH]2)cc1 [Compound 42]

IC50 (TNKS2; [2]): 0.016 µM | IC50 (CDK9; [1]): 16.1 µM | IC50 (Akt): 13.3 µM
SMILES: CN(CCO)c1ccc(-c2nc3ccccc3c(=O)[nH]2)cc1 [C00005]

Source: PMC5785997, “2-Phenylquinazolinones as dual-activity tankyrase-kinase inhibitors” (Scientific Reports, 2018)
